Values after ≈ are worked out from the molar mass of the structure shown.
How the values were obtained:
Format in all cases: functional
[1] = Cytotoxicity against human 9KB cells; conditions: read-out: ED50 (the source's name)
[2] = Cytotoxicity against mouse 9PS cells; conditions: read-out: ED50 (the source's name)
[3] = In vivo cytotoxicity against mouse 3PS cells at 300 mg/kg

SMILES	EC50 [1]	EC50 [2]	T/C [3]
C[C@@H]1C(=O)O[C@@H]2C[C@@]1(C)[C@@H]1C(=O)[C@]3(O)O[C@]14[C@@]2(C)OC(=O)[C@@]4(O)CC[C@H]1[C@H]3CC=C2CC=CC(=O)[C@@]21C	12 µg/mL (≈ 23.4 µM)	0.89 µg/mL (≈ 1.74 µM)	
C[C@@]12C[C@H]3OC(=O)[C@@H]1CO[C@]14O[C@@]5([C@H]2C1=O)[C@@]3(C)OC(=O)[C@@]5(O)CC[C@H]1[C@H]4C[C@@H]2O[C@@]23CC=CC(=O)[C@]13C [5-ALPHA,6-ALPHA-EPOXYPHYSALIN B]	0.43 µg/mL (≈ 0.817 µM)	1.6 µg/mL (≈ 3.04 µM)	
C[C@]12C(=O)C=CCC1=CC[C@@H]1[C@@H]2CC[C@]2(O)C(=O)O[C@@]3(C)[C@H]4C[C@]5(C)[C@@H](CO[C@@]16O[C@@]32[C@H]5C6=O)C(=O)O4 [PHYSALIN B]	3.1 µg/mL (≈ 6.07 µM)	0.01 µg/mL (≈ 0.0196 µM)	137%
